Patent US7271239B2, “D-isomers of antimicrobial peptide” (The Research Foundation of State University of New York, priority 2004, dated 2007)
Like-named read-outs stand apart in the source and are kept apart here. Where no end group is shown, it is not given here.

Key:
C. albicans strain DIS = assay type: in vivo, mice ICR strain; details: mouse, in vivo
Description: A previously described protocol was adopted (14). Mice were immunosuppressed with two subcutaneous injections of prednisolone at a dose of 100 mg/kg body weight 1 day prior to and 3 days after the infection with C. albicans. Tetracycline hydrochloride in drinking water at a concentration of 0.83 mg/ml was given to mice beginning 1 day before infection. Mice were anesthetized by intramuscular injection with 60 μl of 2 mg/ml chlorpromazine chloride, using a dose of 10 mg/kg body weight of mice. While under anesthesia, a small cotton ball soaked in 0.1 ml aliquot of C. albicans cell suspension (2.5×10^6 cells) was used to swab the entire oral cavity of the anesthetized mice.
Visual evaluation was done by carefully extending the tongue of randomly picked mice using blunt-end forceps, while the mice were under isoflurane sedation. Presence of thick, white curd-like patches indicated candidal infection. At day 3 post-infection, all animals were examined for evidence oral candidal infection by microbiological evaluation. The entire oral cavity of anesthetized mice was swabbed using a sterile calcium alginate disposable swab (Fisher Scientific), dampened with sterile PBS. Cells were then released from the swab into 1 ml PBS. Serial 10-fold dilutions were plated on SDA plates supplemented with streptomycin (30 μg/ml). Plates were incubated for 24 h at 37° C. and yeast cell count expressed as log10 of cfu/ml.
Tongues from sacrificed animals were used for histological studies. They were fixed in 10% formalin and embedded in paraffin. Serial five-μm sections were cut from the paraffin block and stained with periodic acid-Schiff (PAS) reagent for detection of C. albicans.
Mice were randomly divided into various treatment groups with 8 mice per group. Antifungal agents were employed on an equimolar basis, and included amphotericin B (1.75%), clotrimazole (0.66%), MUC7 12-mer (RKSYKCLHKRCR—SEQ ID NO:1) (L; 3%), MUC7 12-mer (D; 3%), MUC7 12-mer (D; 3%) containing Na2EDTA (1 mM), MUC7 12-mer (L; 3%) containing protease inhibitor cocktail (PIC) (1%), and Hsn5 12-mer (AKRHHGYKRKFH—SEQ ID NO:2) (3%). They were all emulsified in Pluronic F127, (20% lipoil), a polymer of polyoxyethylene and polyoxypropylene (non-ionic surfactant). Animals were anesthetized using isoflurane; while sedated, about 30 to 40 μl of the antifungal emulsion was applied on the tongue and spread throughout oral cavity. The treated mice were under sedation for additional 5 min under isoflurane. Animals were not given access to food and water for 1 h following the application.
Fungal burden was re-evaluated quantitatively after 3 and 6 days of treatment, using the same technique as the one used for initial evaluation. Randomly picked mice from each group was subjected to histopathological evaluation, after 6 days of treatment. Blood from randomly sacrificed mice from each treatment group was analyzed for any changes in the serum liver (AST, ALT, ALP etc.) and kidney enzymes (BUN, glucose, creatinine etc) levels.
Statistical analysis was performed using a significance level set at 0.05 (α) and a significant group size (n=8). Initial infection and antifungal treatment efficacy were determined using analysis of variance (ANOVA), expressed as log10 cfu, and Scheffe's multiple comparison test was used to determine the differences between various treatment groups.

Erythrocytes = details: determined previously (5), cited from earlier work
[1] = system: C. glabrata 65C (azole-resistant clinical isolate); assay type: cell-based; details: clarified saliva
Text: Killing assays in saliva. […] Saliva without peptides was a blank control.
Activity of peptides in saliva against different candida strains. The in vitro candidacidal activities of MUC7 12-mer-L and D, Hsn5 12-mer, and Magainin-II against four Candida strains in clarified saliva are shown in Table 1. The data are presented as percent loss of cell viability compared to non-treated control. The following observations were made. […] In the presence of PIC, the activity values of MUC7 12-mer-L and of Magainin-II rose close to a 100% for all strains, but not that of Hsn5 peptide, which achieved the similar activity only against the C. albicans (ATCC strain). The activities against the other strains were much lower, in particular against both strains of C. glabrata (30-40%). […] This was true especially in saliva without PIC.

HOK-16B cells = experiment: MTS cell viability assay; assay type: cell-based, human; details: 200 μM
Description: FIG. 6. Effect of peptides on viability of (A) HOK-16B cells and (B) KB cells. The toxic effect of the compounds on the cells was determined by calorimetric assay using a CellTiter 96 AQueous One Solution cell proliferation assay (MTS) kit, as described in the text. Briefly, the cells were grown to about 80% confluence, harvested, washed, resuspended in KGM, and dispensed into a 96-well microtiter plate. They were then exposed to different concentrations of peptides or amphotericin B at 37° C. and 5% CO2 for 1.5 h. MTS agent was then added to each well, and the cells were further incubated for 4 h. Absorbance at 490 nm was then measured using a microplate reader. MTS reduction is an indication of cell viability. The viability is expressed as relative absorbance (percentage of no-agent control). Data represent the average and standard deviation of results from two independent experiments.
Cell culture. The HOK-16B cell line (originated from primary normal human keratinocytes) was kindly provided by No-Hee Park, UCLA School of Dentistry. The KB cell line was obtained from the American Type Culture Collection (CLL-17). […]
MTS cell viability assay. The toxic effect of the compounds on the cells was determined by calorimetric assay using a CellTiter 96 AQueous One Solution cell proliferation assay (MTS) kit (Promega, Wis.). […] Absorbance at 490 nm was then measured using a microplate reader. […]

| Sequence | additional tissue change in tongue section (C. albicans strain DIS) | hemolysis (Erythrocytes; IGP buffer) [%] | hemolysis (Erythrocytes; PBS) [%] | percent loss of cell viability ([1]; PIC+) | percent loss of cell viability ([1]; PIC−) [%] | loss of HOK-16B cell viability (HOK-16B cells) |
| --- | --- | --- | --- | --- | --- | --- |
| AKRHHGYKRKFH [Hsn5 12-mer] | acanthosis of the stratum spinosum | – | – | – | – | – |
| GIGKFLHSAKKFGKAFVGEIMNS [Magainin-II] | – | 92 | 0 | 99.80^± % | 0.00 | about 30% |
